Source: article PMC12525867, “Aromaticity Tuning in Biaryl Monophosphines and Their Derivatives” (Molecules, 2025)
≈ marks a conversion by molar mass, not a printed value.

Columns and labels:
[1] = Cytotoxicity, microculture tetrazolium (MTT) test, H1HeLa; format: cell-based; settings: human, H1HeLa cells (cervical adenocarcinoma, ATCC CRL-1958); H1HeLa (cervical adenocarcinoma), 24 h incubation, MTT; ± SD
Procedure: The cytotoxicity of biaryl monophosphines was tested in vitro in normal (VERO) and cancer-derived (H1HeLa) cells after 24 h of incubation using a microculture tetrazolium test. Table 2 presents the CC50 (concentrations decreasing the cellular viability by 50%) values calculated from dose–response cytotoxicity curves (Figure 4).
Cytotoxicity was evaluated using a microculture tetrazolium test as previously described, and details can be found in the Supplementary Materials. The cell lines used in the presented study were acquired from the American Type Culture Collection (ATCC); the one used for cytotoxicity testing included non-cancerous VERO (kidney; ATCC CCL-81) cells and cancer-originating H1HeLa (cervical adenocarcinoma; ATCC CRL-1958) cells. VERO cells were cultured in Dulbecco’s Modified Eagle’s Medium (DMEM; Corning, Tewksbury, MA, USA), while Eagle’s Minimum Essential Medium (MEM; Corning) was used for H1HeLa. Antibiotics (penicillin–streptomycin solution, Corning) and fetal bovine serum (FBS, Corning) were added to cell media. Cells were incubated in a 5% CO2 atmosphere at 37 °C (CO2 incubator, Panasonic Healthcare Co., Tokyo, Japan). Briefly, the monolayers of VERO or H1HeLa cells in 96-well plates (Falcon, Corning) were treated with serial dilutions of selected compounds for 24 h. After this, the medium was removed, the plates were washed with phosphate buffered saline (PBS; Corning), a 10% solution of (3-(4,5-dimethylthiazol-2-yl)-2,5-diphenyltetrazolium bromide (MTT; Sigma-Aldrich, St. Louis, MO, USA) (5 mg/mL) in FBS-free cell media was added, and the incubation continued for the next 4 h. Subsequently, the precipitated formazan crystals were dissolved, and after overnight incubation at 37 °C, the Synergy H1 Multi-Mode Microplate Reader (BioTek Instruments, Inc., Winooski, VT, USA) with Gen5 software (ver. 3.09.07; BioTek Instruments, Inc.) was used for absorbance acquisition (540 and 620 nm). Data was exported to GraphPad Prism (ver. 10) to calculate the CC50 values (50% cytotoxic concentration) from dose–response curves.
Aromaticity Tuning in Biaryl Monophosphines and Their Derivatives […]
Cell line maintenance and in vitro experiments
The cytotoxicity of selected biaryl monophosphines was evaluated in vitro towards normal VERO (ATCC, CCL-81) cells and cancer-derived cell line H1HeLa (cervical adenocarcinoma; ATCC (American Type Culture Collection) CRL-1958) using 3-(4,5-dimethylthiazol-2-yl)-2,5-diphenylte-trazolium bromide (MTT) based protocol.
Media used for in vitro culturing included Dulbecco's Modified Eagle's Medium (DMEM, Corning, Tewksbury, MA, USA) used for VERO cells and Modified Eagle Medium (MEM, Corning) used for H1HeLa. Cell media used in the experiments were supplemented with antibiotics (Penicil-lin-Streptomycin Solution, Corning) and fetal bovine serum (FBS, Corning) – 10% (cell passaging) and 2% (cell maintenance and experiments). Phosphate-buffered saline (PBS) and trypsin were bought from Corning, whereas MTT (3-(4,5-dimethylthiazol-2-yl)-2,5-diphenyltetrazolium bromide) from Sigma (Sigma-Aldrich, St. Louis, MO, USA). SDS was purchased from PanReac Applichem (Darmstadt, Germany). Incubation was carried out in a 5% CO2 atmosphere at 37°C (CO2 incubator, Panasonic Healthcare Co., Tokyo, Japan).
Concentrations of cells for passaging were as follows: VERO – 1.5*10^5 cells/mL, H1HeLa – 2*10^5 cells/mL. Routine observations of cell cultures and experiments were carried out using an in-verted microscope (CKX41, Olympus Corporation, Tokyo, Japan) equipped with a ca mera (Moti-cam 3+, Motic, Hong Kong), and the results were recorded (Motic Images Plus 2.0, Motic).
Stock solutions of biaryl monophosphines were prepared by dissolving the samples in cell culture grade DMSO (PanReac Applichem).
Evaluation of cytotoxicity
Cytotoxicity was tested using an MTT-based protocol. The cells were passaged into 96-well plates (Falcon, TC-treated, Corning) and, after overnight incubation, treated with serial dilutions of […]

S. aureus ATCC 29213 = assay: Antibacterial screening, broth microdilution (MIC/MBC); format: cell-based, Staphylococcus aureus; settings: Staphylococcus aureus, ATCC29213; for MIC: S. aureus ATCC 29213, MHB, 24 h, 35 °C, read-out: MIC; for MBC: S. aureus ATCC 29213, read-out: MBC
Procedure: (§1) The antimicrobial activities of a series of compounds 1–5 were tested through the utilization of seven reference species, encompassing both Gram-positive (Staphylococcus aureus ATCC 29213, Staphylococcus epidermidis ATCC 12228, Micrococcus luteus ATCC 10240) and Gram-negative (Escherichia coli ATCC 25922, Klebsiella pneumoniae ATCC 13883, Proteus mirabilis ATCC 12453, Acinetobacter baumannii ATCC 19606) bacteria as model microorganisms. For this purpose, microbial suspensions were prepared in sterile saline (0.85% NaCl) with an optical density of 0.5 McFarland standard, yielding a concentration of 150 × 10^6 CFU/mL (CFU, colony-forming units). All of the stock solutions of the tested compounds were dissolved in DMSO. Amoxicillin (Glentham Life Sciences Ltd., Corsham, UK) was used as a positive control.
The MIC values of the tested compounds were determined by serial twofold dilutions of 1–5 in Mueller Hinton Broth (MHB, Biomaxima, Lublin, Poland). The range of final 1–5 concentrations used was from 0.49 up to 1000 μg/mL, and for amoxicillin from 0.12 up to 250 μg/mL in the 96-well microtiter plates (Medlab, Raszyn, Poland), starting with 98 μL MHB and 2 μL bacterial inoculum added to each well. Positive controls consisted of 100 μL MHB in each well with the tested compounds at the same concentration range. The negative controls consisted of 100 μL of MHB only. Each set of tests and controls was established with three replicates. The microtiter plates were then subjected to an incubation period of 24 h at a temperature of 35 ± 2 °C. After incubation, the optical density of the microbial growth was measured at a wavelength of 600 nm using a microplate reader, the Biotek Elx800 (BioTek Instruments, Inc., Winooski, VT, USA). The MIC value was defined as the lowest concentration of the tested compound at which there was no visible growth of the tested microorganisms. The determination of the MIC values was achieved by employing the broth microdilution method, in accordance with the recommendations of the European Committee on Antimicrobial Susceptibility Testing (EUCAST). […] Then, the MHA plates were incubated overnight at 35 ± 2 °C. […] The MIC and MBC values were reported in μg/mL, according to the EUCAST reference.

Gram-positive bacteria = assay: Antibacterial screening, summary over the three Gram-positive reference species; format: cell-based; settings: range over three Gram-positive reference species
Procedure: as §1
The MIC values of the tested compounds were determined by serial twofold dilutions of 1–5 in Mueller Hinton Broth (MHB, Biomaxima, Lublin, Poland). The range of final 1–5 concentrations used was from 0.49 up to 1000 μg/mL, and for amoxicillin from 0.12 up to 250 μg/mL in the 96-well microtiter plates (Medlab, Raszyn, Poland), starting with 98 μL MHB and 2 μL bacterial inoculum added to each well. […] After incubation, the optical density of the microbial growth was measured at a wavelength of 600 nm using a microplate reader, the Biotek Elx800 (BioTek Instruments, Inc., Winooski, VT, USA). […]

COc1cc(OC)c(-c2c(P(=O)(C3CCCCC3)C3CCCCC3)c(OC)c3ccccc3c2OC)c(OC)c1 [Compound 1, Dicyclohexyl[1,4-dimethoxy-3-(2,4,6-trimethoxyphenyl)naphthalen-2-yl]phosphane oxide]
CC50 at 24 h [1]: 6.78 ± 0.27 µg/mL | MIC (S. aureus ATCC 29213): 15.6 to 31.2 µg/mL (≈ 27.6 to 55.1 µM) | MBC (S. aureus ATCC 29213): > 1000 µg/mL

COc1ccccc1-c1c(P(=O)(C2CCCCC2)C2CCCCC2)c(OC)c2ccccc2c1OC [Compound 2, Dicyclohexyl[1,4-dimethoxy-3-(2-methoxyphenyl)naphthalen-2-yl]phosphane oxide]
MBC (Gram-positive bacteria): > 1000 µg/mL | MIC (Gram-positive bacteria): 1.95 to 15.6 µg/mL (≈ 3.85 to 30.9 µM) | CC50 at 24 h [1]: 5.92 ± 0.4 µg/mL | MIC (S. aureus ATCC 29213): 7.82 to 15.6 µg/mL (≈ 15.4 to 30.9 µM) | MBC (S. aureus ATCC 29213): > 1000 µg/mL

COc1cc(OC)c(-c2c(P(=O)(C3CCCCC3)C3CCCCC3)c(O)c3ccccc3c2OC)c(OC)c1 [Compound 3, 2-(Dicyclohexylphosphoryl)-4-methoxy-3-(2,4,6-trimethoxyphenyl)naphthalen-1-ol]
CC50 at 24 h [1]: 3.83 ± 0.33 µg/mL | MIC (S. aureus ATCC 29213): 62.5 to 125 µg/mL (≈ 113 to 226 µM) | MBC (S. aureus ATCC 29213): > 1000 µg/mL
